Experiments:
Assay type in all cases: in vivo, human
[1] = system: patients with downbeat nystagmus; experiment: Case studies, clinical examination (visual acuity, posturography)
Text: The patient was diagnosed with downbeat nystagmus: the patient was severely impaired by blurred vision (oscillopsia) due to the nystagmus, and experienced difficulties while reading and writing. The patient's visual acuity was: right 0.75, left 0.67, binocular 0.83, and the downbeat nystagmus was documented by video-oculography. […] […] […] The patient was able to suppress the nystagmus by visual fixation. In addition, the patient's spatial orientation was improved.

[2] = system: patient with frontotemporal dementia with parkinsonism; experiment: Case study, clinical examination; details: Ex. 9, frontotemporal dementia with parkinsonism; L-Dopa and Ropinirol together
Text: After approximately one month of acetyl-leucine treatment, medication was stopped and the patient was re-examined 13 days later.

[3] = system: patient with corticobasal syndrome; experiment: Case study, clinical examination; details: Ex. 10, corticobasal syndrome
Protocol: Gait analysis was performed before treatment commenced. After 20 days of acetyl-leucine treatment, the patient was re-examined. […] After 8 weeks of acetyl-leucine treatment, medication was stopped and the patient was re-examined 6 days later.

[4] = system: patients with progressive supranuclear palsy; experiment: Case studies, clinical examination
Protocol: After 27 days of acetyl-leucine treatment, medication was stopped and the patient was re-examined 60 days later. […] Gait analysis was performed before treatment commenced. After 17 days of treatment, medication was stopped and the patient was re-examined 4 days later. […] Gait analysis was performed before treatment commenced. After three weeks of treatment, medication was stopped and the patient was re-examined.

[5] = system: patients with multiple system atrophy Parkinson type (MSA-P); experiment: Case studies, clinical examination
Text: Medication was stopped. […] The patient evaluated after one month on acetyl-DL-leucine. […] Episodes of mental confusion completely disappeared. The patient's cognitive structure seemed much clearer and straighter. […] The patient's spouse supported continuing the medication.

[6] = system: patient with Lewy Body dementia; experiment: Case study, clinical evaluation; details: Ex. 17, Lewy Body dementia; Levodopa 100 mg 4× daily and Quetiapin 25 mg at night together
Protocol: The patient started taking acetyl-leucine (3 g/day for one week; 5 g/day thereafter) and was evaluated after four weeks. […] Medication was reduced to 3 g/day, and the patient was instructed to stop medication about two weeks later.

[7] = system: patients with amyotrophic lateral sclerosis (ALS); experiment: Case studies, medical examination; details: Ex. 7 Patient 1, ALS; before acetyl-DL-leucine
Text: The results were documented by video.

## Nc1ccncc1 [4-aminopyridine]
[1]; Ex. 12 Patient 1, downbeat nystagmus, 10 mg twice daily for four weeks
  response to treatment: did not give rise to any benefit
[1]; Ex. 12 Patient 2, downbeat nystagmus
  response to treatment: did not benefit

## N[C@@H](Cc1ccc(O)c(O)c1)C(=O)O [L-Dopa]
[2]
  response to treatment: little improvement
[3]
  response to treatment: no improvement
[4]; Ex. 11 Patient 1, progressive supranuclear palsy
  response to treatment: little improvement
[4]; Ex. 11 Patient 2, PSP
  response to treatment: no levodopa response
[4]; Ex. 11 Patient 3, PSP
  response to treatment: no levodopa response
[4]; Ex. 11 Patient 4, PSP
  response to treatment: slight levodopa response
[5]; Ex. 13 Patient 1, MSA-P, 100/25 mg 3× daily
  response to treatment: discreet Levodopa response
[5]; Ex. 13 Patient 3, MSA-P
  tolerability: suspended due to side effects
[6]
  response to treatment: improved the symptomatology

## OCCOCCN1CCN(C2=Nc3ccccc3Sc3ccccc32)CC1 [Quetiapin]
[6]
  response to treatment: improved the symptomatology

## Nc1nc2ccc(OC(F)(F)F)cc2s1 [Riluzol]
[7]
  clinical symptomatology: clinical symptomatology remained unchanged

## CCCN(CCC)CCc1cccc2c1CC(=O)N2 [Ropinirol]
[2]
  response to treatment: little improvement

Reference: US12144792B2, “Therapeutic agents for neurodegenerative diseases” (priority 2016, dated 2024)
